In patent publication US12440502B2, “Use of thyroid beta-agonists” (priority 2016, dated 2025):

Legend:
[1] = test system: X-ALD fibroblast cell lines; experiment: Cell health (proliferation, morphology, death) of treated X-ALD fibroblasts; type: cell-based, human; settings: for cell survival of X-ALD cell lines: 100 μM, two X-ALD cell lines; for proliferation and morphology of cells: after 72 hours
Method: Human primary fibroblasts. Human skin fibroblasts were obtained from X-ALD patients through the Neurology Outpatient Clinic of the Academic Medical Center. Written informed consent was received from each patient. X-ALD diagnosis was confirmed by VLCFA and ABCD1 mutation analysis. Control fibroblasts were obtained from male anonymous volunteers with written informed consent. Fibroblasts were cultured in Dulbecco's modified Eagle's medium (DMEM) with L-glutamine and 4.5 g/L glucose, supplemented with 10% fetal calf serum, 2.5 mM HEPES, 100 U/ml penicillin and 100 U/ml streptomycin. Cells were cultured at 37° C. in a humidified 5% CO2 atmosphere. All fibroblast cell lines used were tested routinely for mycoplasma. All tests were negative.
Preparation of stock solutions. 10 mM stock solutions in DMSO were prepared by weighing the amount of compound (1 and 3 and their respective active metabolites, 2 and 4) as indicated in Table 2. Stock solutions were stored at room temperature in the dark. For each incubation, the amount of tissue culture medium needed was calculated and a stock solution of tissue culture medium with the final concentration of the to-be-tested compound was prepared. Tissue culture medium was removed from the cells, cells were washed once with PBS and the tissue culture medium with the compounds was added. If an experiment lasted longer than three days, the tissue culture medium and compounds were refreshed (using a fresh preparation) after three days until the end of the experiment.
Two different X-ALD fibroblast cell lines were incubated in duplicate with four compounds at three dosages as highlighted in Table 3.
4 X-ALD cell lines were incubated with 10 μM of 4 compounds 1, 2, 3, and 4. The effect of treatment on ABCD2 expression was analyzed at day 3 and day 10. For the 10 day incubation, tissue culture medium and compounds were refreshed at day 3 and day 6.

[2] = test system: ABCD1−/− mice; experiment: Whole blood VLCFA-LPC levels in an in vivo model of X-ALD; design: species or system mouse; settings: for C26:0-LPC Difference in Mean Change from Baseline / C26:0-LPC % Difference versus Vehicle: initial cohort, whole blood; for Least Squares Mean Change from Baseline Whole Blood C26:0-LPC Levels: second cohort, daily IP
Method: (§1) Animals. Male ABCD1−/− mice were developed using the Taconic 129SvEv background strain. Animals were housed 3-4/cage under a 12-hour lighting cycle (7 AM-7 PM light) and controlled temperature (22° C.) in the rodent facility. They were fed standard mouse chow and had access to drinking water ad libitum. Mice were between 2 and 3 months of age at the beginning of each study.
(§2) Study Protocol. Mice were injected once daily intraperitoneal with either drug or vehicle. For blood collection, ˜50 μL of blood was obtained by facial vein puncture using a sterile lancet. Blood was collected in a 1.5 ml microcentrifuge tube containing dried dipotassium EDTA and mixed by gentle inversion at least ten times before storing at −20° C. Blood was obtained in this manner following two, four, and six weeks of treatment. Following blood collection at six weeks, animals were sacrificed by cervical dislocation. Additional blood for preparation of plasma was obtained via cardiac puncture, and blood placed in Microtainer tubes. Brain, spinal cord, adrenal glands, testis, and liver were excised and snap frozen in liquid nitrogen for future analyses.
An initial cohort of 16 mice were randomized 3:1 to receive compound 3 or placebo, once daily for six weeks. […] Treated animals continued to experience progressive declines in C26:0-LPC through six weeks.
(§3) Based on the encouraging results of the initial cohort, a second, larger, cohort was evaluated. A total of 20 mice were randomized 1:1 to receive daily compound 3 or vehicle, by IP administration, for six weeks.

[3] = test system: ABCD1−/− mice; experiment: Plasma VLCFA-LPC levels in an in vivo model of X-ALD (second cohort); design: species or system mouse
Method: as §1, §2, §3
During the second cohort study, blood was obtained as described in the Methods section. At the six week time point sufficient blood was collected to permit plasma VLCFA analyses at weeks two, four and six. Plasma is considered by many to be a more reliable measurement of VLCFA levels, because of reduced analytical interference from other analytes, as well as reduced variability of the measurements.

[4] = test system: X-ALD cell lines; experiment: De novo D3-C26:0 synthesis from D3-C22:0 in intact X-ALD cells; type: cell-based, human; settings: 10 day treatment, 5 X-ALD cell lines
Method: The effect of treatment on D3-C26:0 synthesis in intact cells. The effect of certain compounds of the invention on the synthesis of D3-C26:0 from D3-C22:0 was measured in cultured skin fibroblasts from controls and X-ALD patients. Cells were seeded at approximately 40% confluency in T75 flasks in DMEM. The next day, medium was replaced with medium containing 30 μM D3-C22:0 and the assayed compounds at their final concentration. […] Each 72 h, the tissue culture medium and compounds was refreshed. At the end of the experiment cells were harvested and VLCFA analyzed as described (Valianpour et al., Molecular Genetics and Metabolism, 79: 189-196 (2003)).
(§4) VLCFA measurement. VLCFA were analyzed by electrospray ionization mass spectrometry (ESI-MS) as described (Valianpour et al., Molecular Genetics and Metabolism, 79: 189-196 (2003)).
(§5) 5 different X-ALD cell lines were incubated for 6 days with compounds 1, 2, 3, and 4 at 10 μM, 5 mM 4PBA (sodium 4-phenylbutyrate), or 0.1 μM sobetirome. On Day 6, 30 μM D3C22:0 was added to assess the effect of treatment on beta-oxidation and de novo D3C26:0 synthesis. 6 untreated control cells as well as 5 different untreated X-ALD cells were included to allow assessment of the treatment effect. The total set consisted of 41 experiments

[5] = test system: X-ALD cell lines; experiment: D3-C22:0 (VLCFA) beta-oxidation in intact X-ALD cells; type: cell-based, human; settings: 0.1 μM; 10 day treatment; 5 X-ALD cell lines
Method: The effect of treatment on D3-C22:0 beta-oxidation in intact cells. Peroxisomal beta-oxidation activity was measured essentially as described by incubating cells with 30 μM deuterium-labeled C22:0 (D3-C22:0) (Kemp et al., Clinical Chemistry 50: 1824-1826 (2004)). Cells were seeded at approximately 40% confluency in T75 flasks in DMEM. The next day, medium was replaced with medium containing 30 μM D3-C22:0 and assayed compounds at their final concentration. […] Each 72 h, the tissue culture medium and compounds was refreshed. At the end of the experiment cells were harvested and VLCFA analyzed as described (Valianpour et al., Molecular Genetics and Metabolism, 79: 189-196 (2003)).
as §4, §5

Cc1cc(OC[P@@]2(=O)OCC[C@@H](c3cccc(Cl)c3)O2)cc(C)c1Cc1ccc(O)c(C(C)C)c1 [Compound 1]
cell survival of X-ALD cell lines [1]: dead within 24 hours | proliferation and morphology of cells ([1]; 0.1 or 10 μM): looked healthy

Cc1cc(OCP(=O)(OCOC(=O)C(C)(C)C)OCOC(=O)C(C)(C)C)cc(C)c1Cc1ccc(O)c(Cc2ccccc2)c1 [Compound 3]
C20:0-, C22:0-, and C24:0-LPC levels ([2]; after six weeks of treatment): significant reductions | C26:0-LPC Difference in Mean Change from Baseline ([2]; week 2): -0.052 µM | C26:0-LPC % Difference versus Vehicle ([2]; week 2, p NS): 0% | C26:0-LPC Difference in Mean Change from Baseline ([2]; week 4): -0.081 µM | C26:0-LPC % Difference versus Vehicle ([2]; week 4, p NS): −11% | C26:0-LPC % Difference versus Vehicle ([2]; week 6, p<0.0001): −40% | Least Squares Mean Change from Baseline Whole Blood C26:0-LPC Levels ([2]; week 2, p NS versus vehicle): -0.021 µM | Least Squares Mean Change from Baseline Whole Blood C26:0-LPC Levels ([2]; week 4, p<0.01 versus vehicle): -0.096 µM | Least Squares Mean Change from Baseline Whole Blood C26:0-LPC Levels ([2]; week 6, p<0.005 versus vehicle): -0.12 µM | Plasma C20:0-LPC % Difference vs. Vehicle ([3]; week 6, p<0.0001): −54% | Plasma C22:0-LPC % Difference vs. Vehicle ([3]; week 6, p<0.0001): −43% | Plasma C26:0-LPC % Difference vs. Vehicle ([3]; week 6, p<0.0001): −29% | Plasma C24:0-LPC % Difference vs. Vehicle ([3]; week 6, p<0.005): −21% | cell survival of X-ALD cell lines [1]: dead within 24 hours | proliferation and morphology of cells ([1]; 0.1 or 10 μM): looked healthy

Cc1cc(OCP(=O)(O)O)cc(C)c1Cc1ccc(O)c(Cc2ccccc2)c1 [Compound 4]
proliferation and morphology of cells ([1]; 0.1, 1 or 10 μM): looked healthy

Cc1cc(OCP(=O)(O)O)cc(C)c1Cc1ccc(O)c(C(C)C)c1 [Compound 2]
proliferation and morphology of cells ([1]; 0.1, 1 or 10 μM): looked healthy

Cc1cc(OCC(=O)O)cc(C)c1Cc1ccc(O)c(C(C)C)c1 [sobetirome]
effect on VLCFA de novo synthesis ([4]; 0.1 μM): did not show any beneficial effect | effect on VLCFA beta-oxidation [5]: did not show any beneficial effect

O=C([O-])CCCc1ccccc1.[Na+] [Compound 4PBA, sodium 4-phenylbutyrate]
VLCFA synthesis ([4]; 5 mM): near normal levels
